Measurements taken from patent US11548870B2, “Compounds useful as inhibitors of helios protein” (Bristol-Myers Squibb Company, priority 2019, dated 2023).

Legend:
Helios = biological target: T1, Helios (Homo sapiens, UniProt Q96SW2+Q9UKS7); experiment: Helios Cellular Degradation Assay (flow cytometry, Helios-PE antibody staining, 72 h); assay type: cell-based; conditions: Jurkat cells, 72 h incubation, flow cytometry; for Dmax: Jurkat, read-out: Helios Dmax
T1 construct: fluorescently labelled antibodies against Helios and Ikaros; endogenous in cells; host or cells: Jurkat cells
T1 sequence (Q9UKS7 whole entry): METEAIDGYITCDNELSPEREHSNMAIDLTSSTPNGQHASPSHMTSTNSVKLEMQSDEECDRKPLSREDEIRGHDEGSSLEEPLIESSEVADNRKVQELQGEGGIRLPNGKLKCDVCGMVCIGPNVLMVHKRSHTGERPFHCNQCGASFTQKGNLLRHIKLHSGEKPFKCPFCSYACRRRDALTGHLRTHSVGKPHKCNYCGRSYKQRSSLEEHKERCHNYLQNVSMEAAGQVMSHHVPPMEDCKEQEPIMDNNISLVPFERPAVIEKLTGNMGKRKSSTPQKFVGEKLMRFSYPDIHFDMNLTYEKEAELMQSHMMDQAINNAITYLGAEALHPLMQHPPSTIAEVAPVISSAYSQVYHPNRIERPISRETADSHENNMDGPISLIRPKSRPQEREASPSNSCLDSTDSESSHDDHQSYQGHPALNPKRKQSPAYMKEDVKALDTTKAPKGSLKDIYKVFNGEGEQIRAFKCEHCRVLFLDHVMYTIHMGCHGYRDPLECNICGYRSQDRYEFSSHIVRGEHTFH
T1 sequence (Q96SW2 whole entry): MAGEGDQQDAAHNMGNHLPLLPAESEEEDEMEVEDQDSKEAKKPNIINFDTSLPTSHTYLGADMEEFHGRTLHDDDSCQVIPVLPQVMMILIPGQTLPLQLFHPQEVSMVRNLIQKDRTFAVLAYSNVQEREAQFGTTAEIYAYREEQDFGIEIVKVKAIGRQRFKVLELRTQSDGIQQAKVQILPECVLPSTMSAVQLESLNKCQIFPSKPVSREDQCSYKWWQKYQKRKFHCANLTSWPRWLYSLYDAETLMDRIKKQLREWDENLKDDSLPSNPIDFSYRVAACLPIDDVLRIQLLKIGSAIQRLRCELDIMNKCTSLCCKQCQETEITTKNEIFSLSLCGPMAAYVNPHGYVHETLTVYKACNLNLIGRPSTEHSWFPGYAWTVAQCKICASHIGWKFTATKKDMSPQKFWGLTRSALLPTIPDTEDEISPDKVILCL
T1 sequence (Q16531 whole entry partner): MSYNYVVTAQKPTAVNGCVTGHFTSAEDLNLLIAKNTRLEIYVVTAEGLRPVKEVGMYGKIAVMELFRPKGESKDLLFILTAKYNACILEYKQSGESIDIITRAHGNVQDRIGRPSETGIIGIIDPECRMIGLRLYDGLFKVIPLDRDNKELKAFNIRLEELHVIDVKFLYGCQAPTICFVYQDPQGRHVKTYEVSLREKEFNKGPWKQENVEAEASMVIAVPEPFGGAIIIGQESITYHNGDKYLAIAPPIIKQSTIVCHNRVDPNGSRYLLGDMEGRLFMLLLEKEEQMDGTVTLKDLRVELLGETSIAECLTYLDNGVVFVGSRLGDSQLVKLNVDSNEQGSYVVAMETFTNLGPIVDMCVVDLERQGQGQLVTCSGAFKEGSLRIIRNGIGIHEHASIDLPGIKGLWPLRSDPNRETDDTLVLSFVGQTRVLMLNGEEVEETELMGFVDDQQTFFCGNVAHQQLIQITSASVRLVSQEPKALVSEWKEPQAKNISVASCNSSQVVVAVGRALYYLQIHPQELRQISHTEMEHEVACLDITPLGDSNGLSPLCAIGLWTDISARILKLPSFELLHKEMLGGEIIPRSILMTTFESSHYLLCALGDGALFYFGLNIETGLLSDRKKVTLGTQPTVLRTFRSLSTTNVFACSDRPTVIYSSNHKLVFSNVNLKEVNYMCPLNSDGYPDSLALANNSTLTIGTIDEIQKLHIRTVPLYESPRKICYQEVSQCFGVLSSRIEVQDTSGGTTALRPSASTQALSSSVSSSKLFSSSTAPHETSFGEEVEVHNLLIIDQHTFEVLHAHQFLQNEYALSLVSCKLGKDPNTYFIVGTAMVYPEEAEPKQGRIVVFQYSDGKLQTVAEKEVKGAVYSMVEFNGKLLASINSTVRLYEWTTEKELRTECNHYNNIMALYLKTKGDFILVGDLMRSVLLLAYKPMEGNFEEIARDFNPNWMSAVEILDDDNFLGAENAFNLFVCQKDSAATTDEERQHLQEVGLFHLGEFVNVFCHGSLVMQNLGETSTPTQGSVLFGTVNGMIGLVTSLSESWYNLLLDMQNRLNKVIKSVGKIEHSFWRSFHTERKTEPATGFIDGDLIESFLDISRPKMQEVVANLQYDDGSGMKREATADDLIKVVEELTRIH
Procedure: (§1) Helios Cellular Degradation Assay
(§2) Jurkat cells were plated at 80,000 cells/well in 40 μL RPMI+10% FBS in a 384 well cell culture plate prior to using acoustic dispensing technology for adding compound of interest. Cell cultures were incubated for 72 h at 37° C. and 5% CO2. In order to facilitate analysis, cell cultures were spun down at 200 rpm for 5 min and the supernatant was discarded. After shaking the plate to dislodge the cell pellet, cells were resuspended in 50 μL of Fixation Buffer (eBioScience FoxP3 buffer set 0000) for 60 min at room temperature. After centrifuging and discarding the supernatant, cells were permeabilized with 50 μL of Permeabilization buffer (eBioScience FoxP3 buffer set 00-5523-00) for 10 min at room temperature. Following permeabilization, cells were spun down and the supernatant was replaced with 20 μL fluorescently labelled antibodies against Helios and Ikaros or corresponding Isotype controls in 1× Permeabilization buffer (Ikaros-Alexa488 [Biolegend, Cat #368408, 1:50], Helios-PE [CST, Cat #29360, 1:50]) and staining reactions were incubated for 1 h at room temperature; protected from light. Subsequently, 30 μL of 1× Permeabilization buffer was added prior to centrifuging the cells and discarding the supernatant. Stained cells were resuspended in 25 μL of flow cytometry staining buffer (PBS+0.2% BSA) and analyzed using an Intellicyt Ique Plus flow cytometer.
as §2, with “00-5523-00)” for “0000)”

Ikaros = biological target: T2, Ikaros (Homo sapiens, UniProt Q13422); experiment: Helios Cellular Degradation Assay, Ikaros readout (flow cytometry, Ikaros-Alexa488 antibody staining, 72 h); assay type: cell-based; conditions: Jurkat cells, 72 h incubation, flow cytometry; for Dmax: Jurkat, read-out: Ikaros Dmax
T2 construct: fluorescently labelled antibodies against Helios and Ikaros; endogenous in cells; host or cells: Jurkat cells
T2 sequence (Q96SW2 whole entry partner): as the sequence (Q96SW2 whole entry) above
T2 sequence (Q16531 whole entry partner): as the sequence (Q16531 whole entry partner) above
T2 sequence (Q13422 whole entry): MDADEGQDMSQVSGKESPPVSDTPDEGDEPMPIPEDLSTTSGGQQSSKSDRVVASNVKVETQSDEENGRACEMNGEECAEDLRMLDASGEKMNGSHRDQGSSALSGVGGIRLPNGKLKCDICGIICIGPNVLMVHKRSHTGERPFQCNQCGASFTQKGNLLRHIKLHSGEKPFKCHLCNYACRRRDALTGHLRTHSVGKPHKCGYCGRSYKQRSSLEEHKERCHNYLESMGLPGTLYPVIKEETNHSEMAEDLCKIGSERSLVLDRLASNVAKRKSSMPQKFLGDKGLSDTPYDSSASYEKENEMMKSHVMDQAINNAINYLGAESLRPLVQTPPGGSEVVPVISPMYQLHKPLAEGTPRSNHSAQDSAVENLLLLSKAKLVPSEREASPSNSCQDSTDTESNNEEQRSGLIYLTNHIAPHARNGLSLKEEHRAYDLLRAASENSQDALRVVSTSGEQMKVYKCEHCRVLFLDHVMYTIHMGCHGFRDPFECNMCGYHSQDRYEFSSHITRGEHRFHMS
Procedure: as §1, §2
as §2, with “00-5523-00)” for “0000)”

| DC50 (Helios) [nM] | Dmax (Helios) [%] | DC50 (Ikaros) [nM] | Dmax (Ikaros) [%] | Helios Dmax (Helios) [%] | Ikaros Dmax (Ikaros) [%] | SMILES |
| --- | --- | --- | --- | --- | --- | --- |
| > 10000 | 3 | > 10000 | 7 | – | – | O=C1CCC(N2Cc3cc(-c4cc(CN5CCC(C(c6ccccc6)c6ccccc6)CC5)ccn4)ccc3C2=O)C(=O)N1 (centres unmarked) [Example 42, 3-(5-(4-((4-benzhydrylpiperidin-1-yl)methyl)pyridin-2-yl)-1-oxoisoindolin-2-yl)piperidine-2,6-dione] |
| > 10000 | 10 | > 10000 | 3 | – | – | CN1CCCN(Cc2ccnc(-c3ccc4c(c3)CN(C3CCC(=O)NC3=O)C4=O)c2)CC1 (centres unmarked) [Example 43, 3-(5-(4-((4-methyl-1,4-diazepan-1-yl)methyl)pyridin-2-yl)-1-oxoisoindolin-2-yl) piperidine-2,6-dione] |
| > 10000 | 36 | > 10000 | 12 | – | – | CC(C)N1CCN(Cc2ccnc(-c3ccc4c(c3)CN(C3CCC(=O)NC3=O)C4=O)c2)CC1 (centres unmarked) [Example 44, 3-(5-(4-((4-isopropylpiperazin-1-yl)methyl)pyridin-2-yl)-1-oxoisoindolin-2-yl)piperidine-2,6-dione] |
| > 10000 | 43 | > 10000 | 6 | – | – | CN(C)[C@@H]1CCN(Cc2ccnc(-c3ccc4c(c3)CN(C3CCC(=O)NC3=O)C4=O)c2)C1 (stereo partly drawn) [Example 45, 3-(5-(4-(((R)-3-(dimethylamino)pyrrolidin-1-yl)methyl)pyridin-2-yl)-1-oxoisoindolin-2-yl)piperidine-2,6-dione] |
| 18 | 83 | > 10000 | 6 | – | – | CC1CCN1Cc1ccnc(-c2ccc3c(c2)CN(C2CCC(=O)NC2=O)C3=O)c1 (centres unmarked) [Example 46, 3-(5-(4-((2-methylazetidin-1-yl)methyl)pyridin-2-yl)-1-oxoisoindolin-2-yl)piperidine-2,6-dione] |
| 17 | 79 | > 10000 | 8 | – | – | CC1CN(Cc2ccnc(-c3ccc4c(c3)CN(C3CCC(=O)NC3=O)C4=O)c2)C1 (centres unmarked) [Example 47, 3-(5-(4-((3-methylazetidin-1-yl)methyl)pyridin-2-yl)-1-oxoisoindolin-2-yl)piperidine-2,6-dione] |
| 32 | 72 | > 10000 | 6 | – | – | O=C1CCC(N2Cc3cc(-c4cc(CN5CCCCCC5)ccn4)ccc3C2=O)C(=O)N1 (centres unmarked) [Example 48, 3-(5-(4-(azepan-1-ylmethyl)pyridin-2-yl)-1-oxoisoindolin-2-yl)piperidine-2,6-dione] |
| > 10000 | – | > 10000 | – | 29 | 3 | CN1CCC(N(C)Cc2ccnc(-c3ccc4c(c3)CN(C3CCC(=O)NC3=O)C4=O)c2)C1 (centres unmarked) [Example 49, 3-(5-(4-((methyl(1-methylpyrrolidin-3-yl)amino)methyl)pyridin-2-yl)-1-oxoisoindolin-2-yl)piperidine-2,6-dione] |
| 22 | 78 | > 10000 | 12 | – | – | CCN(CC)Cc1ccnc(-c2ccc3c(c2)CN(C2CCC(=O)NC2=O)C3=O)c1 (centres unmarked) [Example 50, 3-(5-(4-((diethylamino)methyl)pyridin-2-yl)-1-oxoisoindolin-2-yl)piperidine-2,6-dione] |
| 64 | 70 | > 10000 | 11 | – | – | CC1(C)CN(Cc2ccnc(-c3ccc4c(c3)CN(C3CCC(=O)NC3=O)C4=O)c2)C1 (centres unmarked) [Example 51, 3-(5-(4-((3,3-dimethylazetidin-1-yl)methyl)pyridin-2-yl)-1-oxoisoindolin-2-yl)piperidine-2,6-dione] |
| 300 | 67 | > 10000 | 10 | – | – | CC1(C)CCN1Cc1ccnc(-c2ccc3c(c2)CN(C2CCC(=O)NC2=O)C3=O)c1 (centres unmarked) [Example 52, 3-(5-(4-((2,2-dimethylazetidin-1-yl)methyl)pyridin-2-yl)-1-oxoisoindolin-2-yl)piperidine-2,6-dione] |
| 231 | 77 | > 10000 | 21 | – | – | CC1CCCC(C)N1Cc1ccnc(-c2ccc3c(c2)CN(C2CCC(=O)NC2=O)C3=O)c1 (centres unmarked) [Example 53, 3-(5-(4-((2,6-dimethylpiperidin-1-yl)methyl)pyridin-2-yl)-1-oxoisoindolin-2-yl)piperidine-2,6-dione] |
| 16 | 83 | > 10000 | 12 | – | – | O=C1CCC(N2Cc3cc(-c4cc(CNCC5CCCCC5)ccn4)ccc3C2=O)C(=O)N1 (centres unmarked) [Example 54, 3-(5-(4-(((cyclohexylmethyl)amino)methyl)pyridin-2-yl)-1-oxoisoindolin-2-yl)piperidine-2,6-dione] |
| 9 | 91 | > 10000 | 10 | – | – | CC(NCc1ccnc(-c2ccc3c(c2)CN(C2CCC(=O)NC2=O)C3=O)c1)c1ccccc1 (centres unmarked) [Example 55, 3-(1-oxo-5-(4-(((1-phenylethyl)amino)methyl)pyridin-2-yl)isoindolin-2-yl) piperidine-2,6-dione] |
| 13 | 88 | > 10000 | 18 | – | – | Cc1ccccc1CNCc1ccnc(-c2ccc3c(c2)CN(C2CCC(=O)NC2=O)C3=O)c1 (centres unmarked) [Example 56, 3-(5-(4-(((2-methylbenzyl)amino)methyl)pyridin-2-yl)-1-oxoisoindolin-2-yl)piperidine-2,6-dione] |
| > 10000 | 32 | > 10000 | 0 | – | – | Cc1cccc(CNCc2ccnc(-c3ccc4c(c3)CN(C3CCC(=O)NC3=O)C4=O)c2)c1 (centres unmarked) [Example 57, 3-(5-(4-(((3-methylbenzyl)amino)methyl)pyridin-2-yl)-1-oxoisoindolin-2-yl)piperidine-2,6-dione] |
| 9 | 88 | > 10000 | 22 | – | – | Cc1ccc(CNCc2ccnc(-c3ccc4c(c3)CN(C3CCC(=O)NC3=O)C4=O)c2)cc1 (centres unmarked) [Example 58, 3-(5-(4-(((4-methylbenzyl)amino)methyl)pyridin-2-yl)-1-oxoisoindolin-2-yl)piperidine-2,6-dione] |
| 82 | 79 | > 10000 | 20 | – | – | CN(Cc1ccnc(-c2ccc3c(c2)CN(C2CCC(=O)NC2=O)C3=O)c1)CC1CCCCC1 (centres unmarked) [Example 59, 3-(5-(4-(((cyclohexylmethyl)(methyl)amino)methyl)pyridin-2-yl)-1-oxoisoindolin-2-yl) piperidine-2,6-dione] |
| 548 | 63 | > 10000 | 19 | – | – | O=C1CCC(N2Cc3cc(-c4cc(CN5CCC6CCCC65)ccn4)ccc3C2=O)C(=O)N1 (centres unmarked) [Example 60, 3-(5-(4-((hexahydrocyclopenta[b]pyrrol-1(2H)-yl)methyl)pyridin-2-yl)-1-oxoisoindolin-2-yl) piperidine-2,6-dione] |
| 12 | 83 | > 10000 | 5 | – | – | CCCCNCc1ccnc(-c2ccc3c(c2)CN(C2CCC(=O)NC2=O)C3=O)c1 (centres unmarked) [Example 61, 3-(5-(4-((butylamino)methyl)pyridin-2-yl)-1-oxoisoindolin-2-yl)piperidine-2,6-dione] |
| 45 | 80 | > 10000 | 5 | – | – | CCCNCc1ccnc(-c2ccc3c(c2)CN(C2CCC(=O)NC2=O)C3=O)c1 (centres unmarked) [Example 62, 3-(1-oxo-5-(4-((propylamino)methyl)pyridin-2-yl)isoindolin-2-yl)piperidine-2,6-dione] |
| 14 | 80 | > 10000 | 13 | – | – | O=C1CCC(N2Cc3cc(-c4cc(CNCCc5ccccc5)ccn4)ccc3C2=O)C(=O)N1 (centres unmarked) [Example 63, 3-(1-oxo-5-(4-((phenethylamino)methyl)pyridin-2-yl)isoindolin-2-yl)piperidine-2,6-dione] |
| 36 | 73 | > 10000 | 1 | – | – | O=C1CCC(N2Cc3cc(-c4cc(CNCC5CC5)ccn4)ccc3C2=O)C(=O)N1 (centres unmarked) [Example 64, 3-(5-(4-(((cyclopropylmethyl)amino)methyl)pyridin-2-yl)-1-oxoisoindolin-2-yl)piperidine-2,6-dione] |
